Reference: US9340577B2, “HLA binding motifs and peptides and their uses” (priority 1992, dated 2016)
No end group written: not given here.

Key:
Test in all cases: biochemical
Format in all cases: binding
HLA-A3.2 (A*0301) = HLA-A3.2 (A*0301) (Homo sapiens, UniProt P04439)
HLA-A11 (A*1101) = HLA-A11 (A*1101) (Homo sapiens, UniProt P04439, A114D/D185E/E176A/F33Y/L180Q/S129P/T187R)
A31 (A*3101) = A31 (A*3101) (Homo sapiens, UniProt P04439, A270S/D185E/E176V/E277Q/F33T/G231S/G80R/H175R/I121M/I218V/I322F/K168Q/L300P/L318F/M331R/P217A/Q94H/R138Q/T323A/T345S/T97I/V358M)
A*3301 = A*3301 (Homo sapiens, UniProt P04439, A270S/D185E/E176V/E277Q/E87N/F33T/G231S/H175R/I121M/I218V/I322F/K168Q/K210R/L300P/L318F/M331R/P217A/Q86R/Q94H/R138Q/T323A/T345S/T97I/V358M/Y195H)
A*6801 = A*6801 (Homo sapiens, UniProt P04439, A269V/D185E/E176V/E277Q/E87N/F33Y/G231S/I121M/I166T/I218V/L180W/L300P/L318F/N151K/P208A/P217A/Q86R/R169H/T345S)
HLA-A1 (A*0101) = HLA-A1 (A*0101) (Homo sapiens, UniProt P04439, A114D/A174V/A182V/D101N/D185E/E176A/E190D/L180R/Q94H/R68K/S129P/T187R/V100A/V91M/W191G)
A*2601 = A*2601 (Homo sapiens, UniProt P04439, A114D/A173T/A270S/D101N/D185E/E277Q/E87N/F33Y/G231S/I121R/I218V/K168Q/L180W/L300P/L318F/P208A/P217A/Q86R/Q94H/R138Q/S129P/T187R/T323A/T345S/V100A/V358M)
A*2902 = A*2902 (Homo sapiens, UniProt P04439, A270S/D101N/D185E/E176V/E277Q/E87Q/F33T/G231S/H175R/I121M/I218V/I322F/K168Q/L300P/L318F/M331R/P208A/P217A/Q86L/T323A/T345S/V100A/V358M)
A*3002 = A*3002 (Homo sapiens, UniProt P04439, D101N/D140H/D185E/E176R/F33S/G80R/H175R/K168Q/Q94H/R138E/R41S/V100E)
Sequence of A*3002 (P04439 whole entry, looked up, the tested form may be a part, stated change not applied): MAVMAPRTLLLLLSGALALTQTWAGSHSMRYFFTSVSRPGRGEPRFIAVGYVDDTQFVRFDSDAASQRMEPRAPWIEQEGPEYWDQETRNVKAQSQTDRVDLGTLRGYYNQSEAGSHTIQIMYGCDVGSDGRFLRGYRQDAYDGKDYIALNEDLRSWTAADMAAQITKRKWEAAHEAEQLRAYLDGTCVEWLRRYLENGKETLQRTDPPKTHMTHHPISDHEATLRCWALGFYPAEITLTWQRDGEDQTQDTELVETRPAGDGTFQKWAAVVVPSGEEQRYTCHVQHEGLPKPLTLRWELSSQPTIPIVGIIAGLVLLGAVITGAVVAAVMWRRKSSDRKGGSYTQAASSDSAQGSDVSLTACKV

Row | Compound | IC50 (HLA-A3.2 (A*0301)) | IC50 (HLA-A11 (A*1101)) | IC50 (A31 (A*3101)) | IC50 (A*3301) | IC50 (A*6801) | IC50 (HLA-A1 (A*0101)) | IC50 (A*2601) | IC50 (A*2902) | IC50 (A*3002)
1 | KLNWASQIY [Peptide 1595.09] | 63 nM | 950 nM | > 20000 nM | > 20000 nM | > 20000 nM | 11300 nM | > 20000 nM | 108 nM | 2.9 nM
2 | LMWKFDSSL [Peptide 1605.16] |  |  |  |  |  | > 20000 nM | > 20000 nM | 2050 nM | 348 nM
3 | LYDQLIHMYY [Peptide 9018.0031] |  |  |  |  |  | 191 nM | 4370 nM | 131 nM | 38 nM
4 | LTDDSDIAYY [Peptide 1580.12] |  |  |  |  |  | 6.4 nM | 738 nM | 3980 nM | 293 nM
5 | HYARELHPEY [Peptide 9018.0035] |  |  |  |  |  | > 20000 nM | > 20000 nM | 928 nM | 104 nM
6 | QTRVLAIERY [Peptide 9015.0156] |  |  |  |  |  | 6420 nM | 3310 nM | 4180 nM | 67 nM
7 | EISNYTDTIY [Peptide 9015.0157] |  |  |  |  |  | 2340 nM | 32 nM | > 20000 nM | 7050 nM
8 | VSRDAKGWFY [Peptide 9018.0014] |  |  |  |  |  | 14 nM | 64 nM | 17 nM | 3.4 nM
9 | QTDYYGLYY [Peptide 1593.06] |  |  |  |  |  | 1.3 nM | 122 nM | 38 nM | 674 nM
10 | VWDIVYIEY [Peptide 9018.0040] |  |  |  |  |  | 91 nM | 336 nM | 540 nM | 472 nM
11 | VTIEWRLRRY [Peptide 9018.0015] |  |  |  |  |  | 19 nM | 33 nM | 123 nM | 3.5 nM
12 | LSDMVQWAY [Peptide 1593.03] |  |  |  |  |  | 21 nM | 8060 nM | 504 nM | 161 nM
13 | KSLVKHHMY [Peptide 9015.0034] |  |  |  |  |  | 10500 nM | > 20000 nM | 2790 nM | 7.7 nM
14 | NSDVKHHMY [Peptide 9018.0010] |  |  |  |  |  | 3.2 nM | 8990 nM | 193 nM | 70 nM
15 | LSEMIQWAY [Peptide 1580.17] |  |  |  |  |  | 1.5 nM | > 20000 nM | 187 nM | 77 nM
16 | ITDDSDIAY [Peptide 1580.14] |  |  |  |  |  | 4.2 nM | 7470 nM | 2100 nM | 3150 nM
17 | VSIEWRLRRY [Peptide 9015.0181] |  |  |  |  |  | 4630 nM | 363 nM | 2490 nM | 55 nM
18 | VSRRAKGWFY [Peptide 9015.0178] |  |  |  |  |  | 273 nM | > 20000 nM | 11900 nM | 40 nM
19 | LTDQLIHLY [Peptide 9018.0026] |  |  |  |  |  | 0.53 nM | 432 nM | 178 nM | 2.6 nM
20 | SIEWRLRRY [Peptide 9015.0035] |  |  |  |  |  | 5230 nM | 164 nM | 13100 nM | 265 nM
21 | CC[C@H](C)[C@H](NC(=O)[C@H](CO)NC(=O)[C@@H](NC(=O)[C@@H]1CCCN1C(=O)[C@H](CO)NC(=O)[C@H](Cc1ccc(O)cc1)NC(=O)[C@H](CCSC)NC(=O)[C@@H](N)CCCNC(=N)N)C(C)C)C(=O)N[C@@H](CC(C)C)C(=O)O [Peptide 1605.07] |  |  |  |  |  | > 20000 nM | > 20000 nM | > 20000 nM | 44 nM
22 | NTPPLVKLWY [Peptide 9015.0170] |  |  |  |  |  | 18400 nM | 199 nM | 2650 nM | 9350 nM
23 | SIDWRQRRY [Peptide 9018.0018] |  |  |  |  |  | 43 nM | 236 nM | 561 nM | 3.5 nM
24 | DTADQLIHLY [Peptide 9018.0021] |  |  |  |  |  | 3.6 nM | 3.2 nM | 30 nM | 13 nM
25 | VSDEWRLRRY [Peptide 9018.0016] |  |  |  |  |  | 62 nM | 4320 nM | 2580 nM | 47 nM
26 | ETPGIRYQY [Peptide 9015.0017] |  |  |  |  |  | 9210 nM | 25 nM | > 20000 nM | 2300 nM
27 | GTDCNGWFY [Peptide 1593.01] |  |  |  |  |  | 40 nM | 318 nM | 73 nM | 330 nM

Row | Compound | IC50 (HLA-A3.2 (A*0301)) | IC50 (HLA-A11 (A*1101)) | IC50 (A31 (A*3101)) | IC50 (A*3301) | IC50 (A*6801) | IC50 (HLA-A1 (A*0101)) | IC50 (A*2601) | IC50 (A*2902) | IC50 (A*3002)
28 | DLDDQLIHLY [Peptide 9018.0022] |  |  |  |  |  | 4.9 nM | 38 nM | 3.7 nM | 2.7 nM
29 | MSMSQWIKY [Peptide 1580.05] |  |  |  |  |  | 229 nM | 158 nM | 7.7 nM | 1.8 nM
30 | EISNYTDIIY [Peptide 9015.0158] |  |  |  |  |  | 6020 nM | 59 nM | > 20000 nM | 2900 nM
31 | KYCWNLLQY [Peptide 1595.08] |  |  |  |  |  | > 20000 nM | > 20000 nM | 235 nM | 47 nM
32 | VSIEWRQRRY [Peptide 9015.0182] |  |  |  |  |  | 7930 nM | 1990 nM | 13900 nM | 65 nM
33 | RTKNPEIVIY [Peptide 9015.0164] |  |  |  |  |  | > 20000 nM | > 20000 nM | > 20000 nM | 12 nM
34 | YTDGPGVRY [Peptide 9018.0003] |  |  |  |  |  | 2.1 nM | 152 nM | 39 nM | 45 nM
35 | SIDWRLRRY [Peptide 9018.0020] |  |  |  |  |  | 986 nM | 624 nM | 3310 nM | 27 nM
36 | NTLVKHHMY [Peptide 9018.0009] |  |  |  |  |  | 363 nM | 7370 nM | 45 nM | 69 nM
37 | LSDLQDSGY [Peptide 1580.15] |  |  |  |  |  | 1.7 nM | > 20000 nM | > 20000 nM | 4030 nM
38 | GYADQLIHLY [Peptide 9018.0025] |  |  |  |  |  | 109 nM | 4400 nM | 42 nM | 1.2 nM
39 | ETWETWWTDY [Peptide 9015.0169] |  |  |  |  |  | 955 nM | 2.3 nM | 11800 nM | 8650 nM
40 | STEWRLRRY [Peptide 9018.0019] |  |  |  |  |  | 52 nM | 320 nM | 271 nM | 6.6 nM
41 | VSDRANGWFY [Peptide 9018.0012] |  |  |  |  |  | 4.3 nM | 191 nM | 932 nM | 18 nM
42 | FGEMVQWAY [Peptide 1580.13] |  |  |  |  |  | 318 nM | > 20000 nM | 81 nM | 249 nM
43 | HMDRELHPEY [Peptide 9018.0005] |  |  |  |  |  | 5.1 nM | 6.8 nM | 13 nM | 3.6 nM
44 | ETKKGKAGY [Peptide 9015.0024] |  |  |  |  |  | > 20000 nM | 15 nM | > 20000 nM | 2100 nM
45 | KQNPDIVIY [Peptide 1595.10] | 3800 nM |  | 4550 nM | > 20000 nM | > 20000 nM | > 20000 nM | > 20000 nM | > 20000 nM | 7.4 nM
46 | SFEPIPIHY [Peptide 9015.0001] |  |  |  |  |  | > 20000 nM | 953 nM | 9.4 nM | 191 nM
47 | GYFPDWQNY [Peptide 1605.15] |  |  |  |  |  | > 20000 nM | > 20000 nM | 659 nM | 48 nM
48 | RYSTQVDPGY [Peptide 9018.0039] |  |  |  |  |  | 12200 nM | > 20000 nM | > 20000 nM | 40 nM
49 | MRDNWRSELY [Peptide 9015.0155] |  |  |  |  |  | > 20000 nM | > 20000 nM | 6800 nM | 73 nM
50 | ETKLGKAGY [Peptide 9015.0023] |  |  |  |  |  | > 20000 nM | 21 nM | > 20000 nM | 3900 nM
51 | TWETWWTDY [Peptide 9015.0019] |  |  |  |  |  | > 20000 nM | 3300 nM | 137 nM | 6310 nM
52 | ETWETWWMDY [Peptide 9015.0168] |  |  |  |  |  | 91 nM | 2.9 nM | 5120 nM | 601 nM
53 | VTRRAKGWFY [Peptide 9018.0013] |  |  |  |  |  | 1.5 nM | 15 nM | 21 nM | 3.3 nM
54 | STDAALYWY [Peptide 1593.02] |  |  |  |  |  | 2.6 nM | 24 nM | 26 nM | 68 nM
